Holding throughout (experiment): NCI-60 cell line screen, 48 h
Experiment [1] relates to NCI/ADR-RES ovarian.
In experiment [2] the test system is 786-0 renal.
The test system of experiment [3] is MALME-3M melanoma.
The test system of experiment [4] is A549 NSCLC.
The test system of experiment [5] is CAKI-1 renal.
Experiment [6] has as its system A498 renal.
The subject of experiment [7] is RXF 393 renal.
The test system of experiment [8] is MDA-N.
Experiment [9] deals with BT-549 breast.
In experiment [10] the test system is MOLT-4 leukemia.
The subject of experiment [11] is UO-31 renal.
Experiment [12] relates to RPMI-8226 leukemia.
For experiment [13], the system named is OVCAR-4 ovarian.
Experiment [14] concerns K-562 leukemia.
Experiment [15] has as its system SF-295 CNS.
For experiment [16], the system named is CCRF-CEM leukemia.
The subject of experiment [17] is HS 578T breast.
For experiment [18], the system named is NCI-H226 lung.
Experiment [19] has as its system OVCAR-8 ovarian.

Each structure is given as a SMILES string.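 Step 1: Grow cells in 96-well plates. Step 2: Expose to compound for 48 hours at 5 concentrations. Step 3: Interpolate endpoints linearly; if unreached, use highest concentration. Definition used: TGI = concentration required for complete inhibition of growth.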

Results on eight compounds are retold here after PubChem BioAssay (NCI).

`[N-]=[N+]=NC1=C(c2ccccn2)C(=O)c2cccc3cccc1c23`: the TGI in experiment [1] was above 100 µM; in experiment [2], above 100 µM; in [3], above 100 µM; in experiment [4] it was above 100 µM; in experiment [5], above 100 µM; in experiment [6], 31.5 µM. The TGI in experiment [7] was above 100 µM; in [8], above 100 µM; in experiment [9], 67.2 µM; in [10], 6.16 µM; in [11], 36.1 µM; in experiment [12] it was above 100 µM. The TGI in experiment [13], in [14], in experiment [15], in experiment [16] and in experiment [17] was above 100 µM each time.
In the case of `C=CC[C@]12C=C(OC)[C@@H](O)[C@](OC)(C(c3cc(OC)c4c(c3)OCO4)[C@H]1C)[C@H]2OC(C)=O` (some centres undefined), the TGI in experiment [1], in [2], in experiment [3], in experiment [4], in experiment [5] and in experiment [6] was above 100 µM in each case. The TGI in [7], in experiment [18], in experiment [8], in [19], in [9] and in experiment [10] was above 100 µM each time. In addition, the TGI in [11], in [12], in [13], in experiment [14], in [15] and in experiment [16] was above 100 µM in each case. In experiment [17], this compound yielded a TGI above 100 µM.
For `C=C1C(=O)C=C[C@]2(C)CC[C@H]3C(=C)C(=O)O[C@@H]3[C@@H]12`, the TGI stood at 7.02 µM in experiment [1]; 3.28 µM in [2]; 5.18 µM in [3]; 29.8 µM in [4]; 8.53 µM in experiment [5]; 13.5 µM in experiment [6]. In addition, the TGI was found to be 4.47 µM in experiment [7]; 16.6 µM in experiment [8]; 17.2 µM in [19]; 9.85 µM in experiment [9]; 3.52 µM in experiment [10]; 9 µM in experiment [11]. Besides, the TGI is 5.87 µM in [12]; 5.78 µM in experiment [13]; 4.24 µM in experiment [14]; 30.6 µM in experiment [15]; above 100 µM in experiment [16]; 48.8 µM in [17].
Consider `CN1[C@@H]2C[C@@H](OC(=O)[C@H](CO)c3ccccc3)C[C@H]1[C@@H]1O[C@@H]12`, for which the TGI in [1], in experiment [2], in experiment [3], in experiment [4], in experiment [5] and in [6] was above 100 µM each time. Moreover, the TGI in experiment [7], in [18], in experiment [8], in [19], in experiment [9] and in experiment [10] was above 100 µM in each case. The TGI in [11], in [12], in experiment [13], in experiment [14], in experiment [16] and in [17] was above 100 µM each time.
Consider `CC(C)=CCNc1ncnc2c1ncn2CCC#N`, for which the TGI in [1], in experiment [2], in experiment [3], in [4], in [6] and in experiment [7] was above 100 µM throughout. Besides, the TGI in experiment [18], in experiment [8], in [19], in experiment [9], in experiment [10] and in experiment [11] was above 100 µM in each case. Further, the TGI in experiment [12], in [13], in experiment [14], in experiment [15], in [16] and in experiment [17] was above 100 µM each time.
Take `C=C(Cl)C(C)(Cl)CCC(Br)C(C)(C)Cl` (centres undefined): the TGI is 92.1 µM in experiment [1]; 31.3 µM in [2]; 38.4 µM in experiment [3]; above 100 µM in experiment [4]; 50.1 µM in [5]; above 100 µM in experiment [6]. Also, the TGI was 30.3 µM in experiment [7]; above 100 µM in experiment [18]; 33 µM in [8]; 47.2 µM in experiment [9]; above 100 µM in experiment [10]; 29.3 µM in [11]. The TGI was 50.6 µM in experiment [12]; 33.1 µM in experiment [13]; above 100 µM in experiment [14]; 88.6 µM in experiment [15]; 67.2 µM in [16]; 57.8 µM in experiment [17].
For `Nc1[nH]nc2nc3ccc(C(F)(F)F)cc3nc12`, the TGI in [1] was above 100 µM; in experiment [2], 60.7 µM; in [3] it was above 100 µM; in experiment [4], above 100 µM; in experiment [5], above 100 µM; in [6] it was above 100 µM. For the same compound, the TGI in experiment [7] is 57.1 µM; in experiment [8], above 100 µM; in experiment [19] it was 46 µM; in [9], above 100 µM; in experiment [10], above 100 µM; in experiment [11] it was 49.9 µM. Besides, the TGI in experiment [12] is above 100 µM; in experiment [13], above 100 µM; in experiment [14], above 100 µM; in experiment [15], 97.3 µM; in [16], 37.9 µM; in experiment [17], above 100 µM.
As to `O=C1/C(=C/c2ccc(Cl)cc2)CSc2ccccc21`, the TGI in experiment [1] was 34.5 µM; in experiment [2], 39.3 µM; in experiment [3] it was 74.4 µM; in [4], above 100 µM; in [5], 46.7 µM; in experiment [6] it was above 100 µM. For the same compound, the TGI is 36.3 µM in experiment [7]; 45.2 µM in [18]; 61.7 µM in experiment [8]; above 100 µM in experiment [19]; 78.6 µM in experiment [9]; above 100 µM in [10]. Further, the TGI in experiment [11] was found to be 36.1 µM; in experiment [12] it was 5.29 µM; in experiment [13] it was 71.4 µM; in [14], 92.1 µM; in experiment [16], 9.26 µM; in experiment [17], 75.5 µM.
